Test results published in BindingDB's records for PubMed 11408556 (Astrazeneca Pharmaceuticals, 2001).
Several values for one entry are separate records, joined by “and”; a condition that tells them apart may be missing. Equal values may be shown once.

Target: Substance-P receptor (Homo sapiens, UniProt P25103)
Sequence (P25103 whole entry): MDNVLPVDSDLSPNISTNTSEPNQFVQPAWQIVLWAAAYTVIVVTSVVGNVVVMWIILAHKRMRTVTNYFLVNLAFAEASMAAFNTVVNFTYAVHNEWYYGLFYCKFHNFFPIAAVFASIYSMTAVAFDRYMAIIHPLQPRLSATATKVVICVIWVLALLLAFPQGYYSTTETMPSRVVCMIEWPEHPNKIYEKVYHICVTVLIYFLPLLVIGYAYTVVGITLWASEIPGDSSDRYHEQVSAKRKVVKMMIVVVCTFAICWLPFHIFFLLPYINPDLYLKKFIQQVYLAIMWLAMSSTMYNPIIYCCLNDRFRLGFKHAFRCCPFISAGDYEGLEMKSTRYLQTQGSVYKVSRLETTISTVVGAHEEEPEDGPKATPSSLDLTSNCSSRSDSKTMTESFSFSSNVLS

Ki: 610 pM and 120 pM
Compound: CN(C[C@@H](CCN1CCC(c2ccccc2[S+](C)[O-])CC1)c1ccc(Cl)c(Cl)c1)C(=O)c1cc(C#N)cc2ccccc12 (stereo partly specified)
